Read-outs that look alike come from different tables or passages of the source.
Columns and labels:
[1] = Measurement of log P values by HPLC on reversed phase columns (EEC directive 79/831 Annex V.A8); assay type: physicochemical
Septoria tritici = experiment: In vivo preventive test on Septoria tritici (leaf spot on wheat); settings: dose 500 ppm; wheat plants sprayed 24 h before contamination; grading 24 days after contamination
Procedure: Wheat plants (“Scipion” variety), sown in starter cups on a 50/50 peat soil-pozzolana substrate and grown at 22° C., are treated at the 1-leaf stage (10 cm height) by spraying with the active ingredient prepared as described above. Plants, used as controls, are treated with the mixture of acetone/tween/DMSO/water not containing the active material. After 24 hours, the plants are contaminated by spraying the leaves with an aqueous suspension of cryopreserved Septoria tritici spores (500 000 spores per ml). […] Grading (% of efficacy) is carried out 24 days after the contamination, in comparison with the control plants.

Sphaerotheca fuliginea = experiment: In vivo preventive test on Sphaerotheca fuliginea (powdery mildew on cucurbits); settings: dose 500 ppm; gherkin plants sprayed 24 h before contamination; grading 12 days after contamination
Procedure: Gherkin plants (“Vert petit de Paris” variety), sown in starter cups on a 50/50 peat soil-pozzolana substrate and grown at 24° C., are treated at the Z11 cotyledon stage by spraying with the active ingredient prepared as described above. Plants, used as controls, are treated with the mixture of acetone/tween/DMSO/water not containing the active material. After 24 hours, the plants are contaminated by spraying the cotyledons with an aqueous suspension of Sphaerotheca fuliginea spores (100 000 spores per ml). The spores are collected from infected plants. The contaminated to gherkin plants are incubated at about 20° C. and at 70-80% relative humidity. Grading (% of efficacy) is carried out 12 days after the contamination, in comparison with the control plants.

Alternaria brassicae = experiment: In vivo preventive test on Alternaria brassicae (leaf spot on radish); settings: radish plants sprayed 24 h before contamination, grading 6 days after contamination vs control plants
Procedure: Radish plants (“Pernod Clair” variety), sown in starter cups on a 50/50 peat soil-pozzolana substrate and grown at 17° C., are treated at the cotyledon stage by spraying with the active ingredient prepared as described above. Plants, used as controls, are treated with the mixture of acetone/tween/DMSO/water not containing the active material. After 24 hours, the plants are contaminated by spraying the cotyledons with an aqueous suspension of Alternaria brassicae spores (50 000 spores per ml). The spores are collected from a 15-day-old culture. […] Grading (% of efficacy) is carried out 6 days after the contamination, in comparison with the control plants.

Puccinia recondita = experiment: In vivo preventive test on Puccinia recondita (brown rust on wheat); settings: wheat plants sprayed 24 h before contamination, grading 12 days after contamination
Procedure: Plants, used as controls, are treated with the mixture of acetone/tween/DMSO/water not containing the active material. After 24 hours, the plants are contaminated by spraying the leaves with an aqueous suspension of Puccinia recondita spores (100 000 spores per ml). […] Grading (% of efficacy) is carried out 12 days after the contamination, in comparison with the control plants.

Uromyces appendiculatus = experiment: In vivo preventive test on Uromyces appendiculatus (bean rust); settings: bean plants sprayed 24 h before contamination, grading 11 days after contamination
Summary of the method: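 Saxa bean plants grown at 24° C were sprayed at the 2-leaf stage (9 cm) with compound in acetone/tween/DMSO/water; controls got solvent mix only. Leaves inoculated 24 h later with U. appendiculatus spores (150 000 spores/ml). Efficacy (%) graded 11 days post-inoculation versus controls.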

Pyrenophora teres = experiment: In vivo preventive test on Pyrenophora teres (net blotch on barley); settings: barley plants sprayed 24 h before contamination, grading 14 days after contamination
Procedure: Barley plants (“Plaisant” variety), sown in starter cups on a 50/50 peat soil-pozzolana substrate and grown at 22° C., are treated at the 1-leaf stage (10 cm height) by spraying with the active ingredient prepared as described above. Plants, used as controls, are treated with the mixture of acetone/tween/DMSO/water not containing the active material. After 24 hours, the plants are contaminated by spraying the leaves with an aqueous suspension of Pyrenophora teres spores (12 000 spores per ml). The spores are collected from a 12-day-old culture. […] Grading (% of efficacy) is carried out 14 days after the contamination, in comparison with the control plants.

Botrytis cinerea = experiment: In vivo preventive test on Botrytis cinerea (grey mould); settings: gherkin plants sprayed 24 h before contamination, grading 4 to 5 days after contamination
Procedure: Gherkin plants (“Vert petit de Paris” variety), sown in starter cups on a 50/50 peat soil-pozzolana substrate and grown at 24° C., are treated at the Z11 cotyledon stage by spraying with the active ingredient prepared as described above. Plants, used as controls, are treated with the mixture of acetone/tween/DMSO/water not containing the active material. After 24 hours, the plants are contaminated by spraying the cotyledons with an aqueous suspension of cryopreserved Botrytis cinerea spores (50 000 spores per ml). The spores are suspended in a nutrient solution composed of 10 g/L of PDB, 50 g/L of D-Fructose, 2 g/L of NH4NO3 and 1 g/L of KH2PO4. […] Grading (% of efficacy) is carried out 4 to 5 days after the contamination, in comparison with the control plants.

Pyricularia oryzae = assay type: in vivo; settings: rice plants sprayed 24 h before contamination, grading 6 days after contamination

Structure (SMILES)	logP ([1]; method marked [a])	Eff. % (Septoria tritici) [%]	Eff. % (Sphaerotheca fuliginea) [%]	Eff. % (Alternaria brassicae; dose 500 ppm) [%]	Eff. % (Puccinia recondita; dose 500 ppm) [%]	Eff. % (Uromyces appendiculatus; dose 500 ppm) [%]	Eff. % (Pyrenophora teres; dose 500 ppm) [%]	Eff. % (Botrytis cinerea; dose 500 ppm) [%]	logP ([1]; method marked [b])	chromatographic logP ([1]; pH 2.7)	Eff. % (Pyricularia oryzae; dose 500 ppm) [%]	Eff. % (Pyricularia oryzae; dose 100 ppm) [%]	Eff. % (Puccinia recondita; dose 100 ppm) [%]	Eff. % (Uromyces appendiculatus; dose 100 ppm) [%]	Eff. % (Pyrenophora teres; dose 100 ppm) [%]	Eff. % (Botrytis cinerea; dose 100 ppm) [%]	Eff. % (Alternaria brassicae; dose 100 ppm) [%]
CC(C)C1Cc2c(NC(=O)c3c(C(F)F)nn(C)c3F)cccc2C1(C)C (stereo not drawn) [Example 5]	4.69[a]	93	100	100	100	100	–	–	–	–	–	–	–	–	–	–	–
Cn1nc(C(F)F)c(C(=O)Nc2cccc3c2CCC32CC2)c1F [Example 11]	3.33[a]	–	–	92	98	100	80	98	–	–	–	–	–	–	–	–	–
CC1CC(C)(C)c2c(C3CC3)ccc(NC(=O)c3c(C(F)F)nn(C)c3F)c21 (stereo not drawn) [Example 17]	4.35[a];	–	–	–	94	97	97	98	4.28[b]	–	–	–	–	–	–	–	–
Cc1ccc(NC(=O)c2c(C(F)F)nn(C)c2F)c2c1C(C)(C)CC2C (stereo not drawn) [Example 19]	3.99[a];	–	–	75	94	77	97	98	3.92[b]	–	–	–	–	–	–	–	–
CC1c2cccc(NC(=O)c3c(C(F)F)nn(C)c3F)c2CC12CCCC2 (stereo not drawn) [Example 32]	4.39[a]	90	98	93	100	100	97	–	–	–	–	–	–	–	–	–	–
CC1c2cccc(NC(=O)c3c(C(F)F)nn(C)c3Cl)c2CC12CCCC2 (stereo not drawn) [Example 33, 5-chloro-3-(difluoromethyl)-1-methyl-N-(1′-methyl-1′,3′-dihydrospiro[cyclopentane-1,2′-inden]-4′-yl)-1H-pyrazole-4-carboxamide]	–	90	95	86	93	100	–	–	–	4.63	–	–	–	–	–	–	–
CC1CC(C(C)C)c2cccc(NC(=O)c3c(C(F)F)nn(C)c3F)c21 (stereo not drawn) [Example 34]	4.19[a]	85	95	93	97	100	97	–	–	–	–	–	–	–	–	–	–
CC1CC(C(C)C)c2cccc(NC(=O)c3c(C(F)F)nn(C)c3Cl)c21 (stereo not drawn) [Example 35]	4.46[a]	80	–	79	97	100	–	–	–	–	–	–	–	–	–	–	–
CC1Cc2c(NC(=O)c3c(C(F)F)nn(C)c3F)cccc2C1(C)C (stereo not drawn) [Example 45]	3.94[a]	–	100	–	100	100	–	–	–	–	83	–	–	–	–	–	–
CC1CC2(CC2)c2cccc(NC(=O)c3c(C(F)F)nn(C)c3F)c21 (stereo not drawn) [Example 50]	3.55[a]	–	98	93	98	100	80	100	–	–	–	–	–	–	–	–	–
CC1CC2(CC2)c2cccc(NC(=S)c3c(C(F)F)nn(C)c3F)c21 (stereo not drawn) [Example 60]	3.71[a]	93	100	–	–	100	100	100	–	–	–	–	–	–	–	–	–
CC1c2c(NC(=O)c3c(C(F)F)nn(C)c3F)cccc2C(C)(C)C1C (stereo not drawn) [Example 64]	3.96[a]	93	100	100	100	100	97	100	–	–	–	–	–	–	–	–	–
CC1CC(CC(C)(C)C)c2cccc(NC(=O)c3c(C(F)F)nn(C)c3F)c21 (stereo not drawn) [Example 70]	4.92[a]	79	100	89	98	100	–	–	–	–	–	–	–	–	–	–	–
Cn1nc(C(F)F)c(C(=O)Nc2cccc3c2CC(C)(C)C3)c1Cl [Example 73]	3.21[a]	71	100	83	100	100	–	–	–	–	–	–	–	–	–	–	–
CC1c2cccc(NC(=O)c3c(C(F)F)nn(C)c3F)c2CC1(C)C (stereo not drawn) [Example 78]	3.92[a]	88	100	95	98	100	–	75	–	–	–	–	–	–	–	–	–
CC(C)CC1CC(C)c2c(NC(=O)c3c(C(F)F)nn(C)c3F)cccc21 (stereo not drawn) [Example 80]	4.71[a]	86	98	97	98	100	97	–	–	–	–	–	–	–	–	–	–
CCC1Cc2c(NC(=O)c3c(C(F)F)nn(C)c3F)cccc2C1(C)C (stereo not drawn) [Example 86]	4.34[a]	93	–	96	100	100	92	–	–	–	–	–	–	–	–	–	–
Cn1nc(C(F)F)c(C(=O)Nc2cccc3c2C(C)(C)CC3)c1Cl [Example 89]	3.53[a]	–	–	–	–	–	–	–	–	–	–	93	–	–	–	–	–
CCC1Cc2c(NC(=O)c3c(C(F)F)nn(C)c3Cl)cccc2C1(C)C (stereo not drawn) [Example 90]	4.61[a]	79	100	90	100	100	75	–	–	–	–	–	–	–	–	–	–
CCC1(CC)Cc2c(NC(=O)c3c(C(F)F)nn(C)c3Cl)cccc2C1C (stereo not drawn) [Example 93]	4.92[a]	75	98	–	98	100	–	–	–	–	–	–	–	–	–	–	–
Cn1nc(C(F)F)c(C(=O)Nc2cccc3c2CCC3C(C)(C)C)c1F (stereo not drawn) [Example 97]	4.39[a]	79	89	–	98	100	83	–	–	–	–	–	–	–	–	–	–
CCC1(CC)Cc2c(NC(=O)c3c(C(F)F)nn(C)c3F)cccc2C1C (stereo not drawn) [Example 101]	4.67[a]	88	100	100	98	100	–	–	–	–	–	–	–	–	–	–	–
CC1CC2(CCCC2)c2cccc(NC(=O)c3c(C(F)F)nn(C)c3F)c21 (stereo not drawn) [Example 103]	4.39[a]	–	–	–	–	–	–	–	–	–	–	–	98	100	80	100	–
CC1CC2(CCCCC2)c2cccc(NC(=O)c3c(C(F)F)nn(C)c3F)c21 (stereo not drawn) [Example 107]	4.73[a]	–	–	–	–	–	–	–	–	–	–	–	100	100	–	100	97
